Assay results published in patent US20160375006A1, “USES OF PARALOG-SELECTIVE INHIBITORS OF GSK3 KINASES” (priority 2012, published 2016).
Where two headings read alike, the source gives them in different places.

Key:
GSK3β = GSK3β (Homo sapiens, UniProt P49841)
Method: (§1) This was completed utilizing one of two assays depending on the kinase being examined.
(§2) A solution of IMAP binding reagent (IMAP Screening Express kit; Molecular Devices) (60 μL) was added to each well and incubated for 30 minutes.
(§3) A solution of termination buffer (QuickScout Screening assist MSA; Carna Biosciences) (60 μL) was added to each well. The entire reaction mixture was then applied to a LabChip3000 system (Caliper Life Science) and the product and substrate peptide peaks were separated and quantified.
(§4) The assay utilized was identical to that of the single point inhibitory activity determination (MSA) but run in dose response. […] A solution of termination buffer (QuickScout Screening assist MSA; Carna Biosciences) (60 μL) was added to each well. The entire reaction mixture was then applied to a LabChip3000 system (Caliper Life Science) and the product and substrate peptide peaks were separated and quantified.

FLT3 = FLT3 (Homo sapiens, UniProt P36888)
CDC2/CycB1 = CDC2/CycB1 (Homo sapiens, UniProt P06493)
Method: as §1, §2, §3, §4

EPHB4 = EPHB4 (Homo sapiens, UniProt P54760)
Method: as §1, §2, §3, §4

LOK = LOK (Homo sapiens, UniProt O94804)
Method: as §1, §2, §3

YES = YES (Homo sapiens, UniProt P07947)
Method: as §1, §2, §3

BRAF_Cascade = BRAF_Cascade (Homo sapiens, UniProt P15056)
Method: as §1, §2, §3, §4

EPHA6 = EPHA6 (Homo sapiens, UniProt Q9UF33)
Method: as §1, §2, §3

LCK = LCK (Homo sapiens, UniProt P06239)
Method: as §1, §2, §3, §4

MLK3_Cascade = MLK3_Cascade (Homo sapiens, UniProt Q16584)
Method: as §1, §2, §3, §4

EPHA4 = EPHA4 (Homo sapiens, UniProt P54764)
Method: as §1, §2, §3, §4

KIT(D816V) = KIT(D816V) (Homo sapiens, UniProt P10721, D816V)
Method: as §1, §2, §3, §4

TSSK3 = TSSK3 (Homo sapiens, UniProt Q96PN8)
Chain of TSSK3 (Q96PN8 whole entry): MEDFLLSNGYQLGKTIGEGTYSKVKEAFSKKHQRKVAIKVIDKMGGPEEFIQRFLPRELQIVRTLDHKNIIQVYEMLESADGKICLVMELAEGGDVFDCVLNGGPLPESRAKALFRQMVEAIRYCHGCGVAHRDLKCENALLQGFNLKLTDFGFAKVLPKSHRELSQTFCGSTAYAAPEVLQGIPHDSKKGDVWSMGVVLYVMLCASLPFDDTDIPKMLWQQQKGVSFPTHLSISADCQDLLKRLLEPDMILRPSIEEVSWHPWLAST
Method: as §1, §2, §3, §4

IRAK1 = IRAK1 (Homo sapiens, UniProt P51617)
Method: as §1, §2, §3, §4

TRKA = TRKA (Homo sapiens, UniProt P04629)
Method: as §1, §2, §3, §4

MLK2_Cascade = MLK2_Cascade (Homo sapiens, UniProt Q02779)
Method: as §1, §2, §3, §4

MAP3K5_Cascade = MAP3K5_Cascade (Homo sapiens, UniProt Q99683)
Chain of MAP3K5_Cascade (Q99683 whole entry): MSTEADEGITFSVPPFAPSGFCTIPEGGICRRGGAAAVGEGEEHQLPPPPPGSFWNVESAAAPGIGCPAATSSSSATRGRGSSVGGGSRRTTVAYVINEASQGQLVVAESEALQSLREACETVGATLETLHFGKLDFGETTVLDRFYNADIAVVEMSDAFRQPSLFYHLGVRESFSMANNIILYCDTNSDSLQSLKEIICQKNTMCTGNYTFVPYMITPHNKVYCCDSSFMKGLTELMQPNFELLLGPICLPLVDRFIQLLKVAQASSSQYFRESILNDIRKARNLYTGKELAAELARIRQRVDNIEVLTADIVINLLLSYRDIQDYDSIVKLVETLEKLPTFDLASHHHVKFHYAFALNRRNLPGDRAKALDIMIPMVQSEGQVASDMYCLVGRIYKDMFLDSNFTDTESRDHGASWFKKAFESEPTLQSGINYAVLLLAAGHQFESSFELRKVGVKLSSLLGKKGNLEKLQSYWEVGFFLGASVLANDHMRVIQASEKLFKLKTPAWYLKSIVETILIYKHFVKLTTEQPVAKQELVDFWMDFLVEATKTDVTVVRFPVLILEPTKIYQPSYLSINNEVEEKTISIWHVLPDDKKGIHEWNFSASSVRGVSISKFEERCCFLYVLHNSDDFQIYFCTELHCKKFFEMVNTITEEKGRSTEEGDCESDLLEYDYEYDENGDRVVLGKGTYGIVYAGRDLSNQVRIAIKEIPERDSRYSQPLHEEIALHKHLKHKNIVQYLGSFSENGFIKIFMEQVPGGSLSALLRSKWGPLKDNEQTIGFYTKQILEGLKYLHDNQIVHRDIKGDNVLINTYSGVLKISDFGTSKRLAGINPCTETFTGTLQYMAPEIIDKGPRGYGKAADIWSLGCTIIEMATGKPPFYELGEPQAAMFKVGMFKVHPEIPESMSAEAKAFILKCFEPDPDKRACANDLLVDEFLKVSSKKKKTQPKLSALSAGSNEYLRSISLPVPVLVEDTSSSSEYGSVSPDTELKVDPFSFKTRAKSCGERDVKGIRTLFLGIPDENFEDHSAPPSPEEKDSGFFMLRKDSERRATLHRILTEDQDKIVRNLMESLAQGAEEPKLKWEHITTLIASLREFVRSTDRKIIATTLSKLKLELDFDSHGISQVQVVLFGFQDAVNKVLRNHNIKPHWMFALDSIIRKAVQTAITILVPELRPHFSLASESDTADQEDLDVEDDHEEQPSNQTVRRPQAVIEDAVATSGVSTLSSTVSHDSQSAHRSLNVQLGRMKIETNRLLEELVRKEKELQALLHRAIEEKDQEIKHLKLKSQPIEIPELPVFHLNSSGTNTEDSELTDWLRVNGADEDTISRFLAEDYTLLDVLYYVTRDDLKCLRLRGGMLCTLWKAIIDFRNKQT
Method: as §1, §2, §3, §4

PIM2 = PIM2 (Homo sapiens, UniProt Q9P1W9)
Method: as §1, §2, §3, §4

ALK(L1196M) = ALK(L1196M) (Homo sapiens, UniProt Q9UM73, L1196M)
Method: as §1, §2, §3, §4

EGFR = EGFR (Homo sapiens, UniProt P00533)
Method: as §1, §2, §3, §4

FGFR4(V550L) = FGFR4(V550L) (Homo sapiens, UniProt P22455, V550L)
Method: as §1, §2, §3, §4

PDGFRα = PDGFRα (Homo sapiens, UniProt P16234)
Chain of PDGFRα (P16234 24-1089): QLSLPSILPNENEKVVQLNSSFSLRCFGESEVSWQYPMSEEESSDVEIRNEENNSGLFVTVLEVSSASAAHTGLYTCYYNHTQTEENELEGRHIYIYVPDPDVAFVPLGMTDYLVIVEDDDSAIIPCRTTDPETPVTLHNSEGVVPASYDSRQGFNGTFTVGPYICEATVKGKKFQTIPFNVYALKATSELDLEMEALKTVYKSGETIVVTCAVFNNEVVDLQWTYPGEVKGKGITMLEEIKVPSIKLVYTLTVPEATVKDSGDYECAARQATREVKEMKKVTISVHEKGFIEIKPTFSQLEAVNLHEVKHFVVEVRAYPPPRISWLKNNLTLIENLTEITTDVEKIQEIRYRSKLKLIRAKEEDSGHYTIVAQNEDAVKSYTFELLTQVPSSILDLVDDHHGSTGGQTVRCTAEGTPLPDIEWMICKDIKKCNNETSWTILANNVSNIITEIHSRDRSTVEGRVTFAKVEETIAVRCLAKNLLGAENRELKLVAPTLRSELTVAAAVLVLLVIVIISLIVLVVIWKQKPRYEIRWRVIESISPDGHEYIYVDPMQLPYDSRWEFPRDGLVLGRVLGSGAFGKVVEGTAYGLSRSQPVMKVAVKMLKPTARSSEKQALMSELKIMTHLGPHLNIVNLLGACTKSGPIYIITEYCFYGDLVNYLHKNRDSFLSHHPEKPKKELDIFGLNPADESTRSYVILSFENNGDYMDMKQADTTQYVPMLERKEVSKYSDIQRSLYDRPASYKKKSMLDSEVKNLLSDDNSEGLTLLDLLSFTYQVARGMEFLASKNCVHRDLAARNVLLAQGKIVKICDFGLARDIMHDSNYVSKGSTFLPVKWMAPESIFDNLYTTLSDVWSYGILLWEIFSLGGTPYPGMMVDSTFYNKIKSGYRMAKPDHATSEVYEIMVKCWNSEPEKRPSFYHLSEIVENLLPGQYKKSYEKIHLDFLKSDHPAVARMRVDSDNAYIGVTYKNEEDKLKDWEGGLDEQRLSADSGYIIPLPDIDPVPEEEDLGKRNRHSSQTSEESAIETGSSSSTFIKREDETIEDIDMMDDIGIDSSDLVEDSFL
Method: as §1, §2, §3, §4

SGK3 = SGK3 (Homo sapiens, UniProt Q96BR1)
Method: as §1, §2, §3, §4

DYRK2 = DYRK2 (Homo sapiens, UniProt Q92630)
Chain of DYRK2 (Q92630 whole entry): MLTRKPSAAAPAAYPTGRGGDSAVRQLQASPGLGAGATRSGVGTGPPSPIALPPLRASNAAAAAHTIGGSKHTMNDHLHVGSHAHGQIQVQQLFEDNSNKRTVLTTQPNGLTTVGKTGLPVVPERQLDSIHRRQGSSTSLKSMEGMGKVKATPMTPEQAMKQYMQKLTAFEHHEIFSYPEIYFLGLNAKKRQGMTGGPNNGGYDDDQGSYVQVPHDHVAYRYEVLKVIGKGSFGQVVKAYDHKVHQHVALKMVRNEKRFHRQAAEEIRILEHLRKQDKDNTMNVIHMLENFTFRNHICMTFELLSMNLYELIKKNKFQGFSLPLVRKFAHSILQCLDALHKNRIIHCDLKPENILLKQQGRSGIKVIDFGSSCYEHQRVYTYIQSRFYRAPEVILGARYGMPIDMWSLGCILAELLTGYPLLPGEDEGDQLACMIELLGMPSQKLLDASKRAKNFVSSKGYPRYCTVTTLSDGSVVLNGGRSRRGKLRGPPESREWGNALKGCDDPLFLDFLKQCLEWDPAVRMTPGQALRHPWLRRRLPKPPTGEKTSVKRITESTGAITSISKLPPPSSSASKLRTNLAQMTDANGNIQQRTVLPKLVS
Method: as §1, §2, §3, §4

DYRK1A = DYRK1A (Homo sapiens, UniProt Q13627)
Method: as §1, §2, §3, §4

p38γ = p38γ (Homo sapiens, UniProt P53778)
Chain of p38γ (P53778 whole entry): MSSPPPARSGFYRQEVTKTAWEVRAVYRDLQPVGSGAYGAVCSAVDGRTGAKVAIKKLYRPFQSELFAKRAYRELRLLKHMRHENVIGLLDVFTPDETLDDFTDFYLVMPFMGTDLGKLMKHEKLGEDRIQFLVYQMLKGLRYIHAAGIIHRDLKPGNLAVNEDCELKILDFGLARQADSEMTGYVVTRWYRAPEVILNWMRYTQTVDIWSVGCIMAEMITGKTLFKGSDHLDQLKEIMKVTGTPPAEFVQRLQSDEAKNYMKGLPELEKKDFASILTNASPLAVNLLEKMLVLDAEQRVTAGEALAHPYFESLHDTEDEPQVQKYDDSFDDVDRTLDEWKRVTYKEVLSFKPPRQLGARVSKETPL
Method: as §1, §2, §3

CHK2 = CHK2 (Homo sapiens, UniProt O96017)
Method: as §1, §2, §3, §4

FAK = FAK (Homo sapiens, UniProt Q05397)
Method: as §1, §2, §3, §4

IKKβ = IKKβ (Homo sapiens, UniProt O14920)
Method: as §1, §2, §3, §4

WNK1 = WNK1 (Homo sapiens, UniProt Q9H4A3)
From the text: as §1
(§5) The assay utilized was identical to that of the single point inhibitory activity determination (MSA) but run in dose response.

SIK = SIK (Homo sapiens, UniProt P57059)
Method: as §1, §2, §3, §4

NEK6 = NEK6 (Homo sapiens, UniProt Q9HC98)
Method: as §1, §2, §3

PHKG2 = PHKG2 (Homo sapiens, UniProt P15735)
Method: as §1, §2, §3

PKCβ1 = PKCβ1 (Homo sapiens, UniProt P05771)
Method: as §1, §2, §3

PKD1 = PKD1 (Homo sapiens, UniProt Q15139)
Method: as §1, §2, §3, §4

CK2α2/β = CK2α2/β (Homo sapiens, UniProt P19784)
Method: as §1, §2, §3, §4

p70S6K = p70S6K (Homo sapiens, UniProt P23443)
Method: as §1, §2, §3, §4

AKT3 = AKT3 (Homo sapiens, UniProt Q9Y243)
Method: as §1, §2, §3, §4

PLK3 = PLK3 (Homo sapiens, UniProt Q9H4B4)
Method: as §1, §2, §3

CRIK = CRIK (Homo sapiens, UniProt O14578)
Method: as §1, §2, §3

Chain of GSK3β (P49841 whole entry): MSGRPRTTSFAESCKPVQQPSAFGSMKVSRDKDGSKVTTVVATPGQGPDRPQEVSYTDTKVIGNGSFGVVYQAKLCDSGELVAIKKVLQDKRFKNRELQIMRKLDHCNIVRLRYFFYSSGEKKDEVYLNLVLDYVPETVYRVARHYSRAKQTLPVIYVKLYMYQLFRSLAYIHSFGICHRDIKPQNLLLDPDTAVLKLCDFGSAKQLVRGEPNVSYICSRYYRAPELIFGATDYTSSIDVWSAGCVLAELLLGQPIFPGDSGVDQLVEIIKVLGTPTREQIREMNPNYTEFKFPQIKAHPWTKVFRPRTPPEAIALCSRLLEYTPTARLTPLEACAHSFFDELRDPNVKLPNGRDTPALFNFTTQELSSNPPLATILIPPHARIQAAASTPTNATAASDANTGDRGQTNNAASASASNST
Chain of LOK (O94804 whole entry): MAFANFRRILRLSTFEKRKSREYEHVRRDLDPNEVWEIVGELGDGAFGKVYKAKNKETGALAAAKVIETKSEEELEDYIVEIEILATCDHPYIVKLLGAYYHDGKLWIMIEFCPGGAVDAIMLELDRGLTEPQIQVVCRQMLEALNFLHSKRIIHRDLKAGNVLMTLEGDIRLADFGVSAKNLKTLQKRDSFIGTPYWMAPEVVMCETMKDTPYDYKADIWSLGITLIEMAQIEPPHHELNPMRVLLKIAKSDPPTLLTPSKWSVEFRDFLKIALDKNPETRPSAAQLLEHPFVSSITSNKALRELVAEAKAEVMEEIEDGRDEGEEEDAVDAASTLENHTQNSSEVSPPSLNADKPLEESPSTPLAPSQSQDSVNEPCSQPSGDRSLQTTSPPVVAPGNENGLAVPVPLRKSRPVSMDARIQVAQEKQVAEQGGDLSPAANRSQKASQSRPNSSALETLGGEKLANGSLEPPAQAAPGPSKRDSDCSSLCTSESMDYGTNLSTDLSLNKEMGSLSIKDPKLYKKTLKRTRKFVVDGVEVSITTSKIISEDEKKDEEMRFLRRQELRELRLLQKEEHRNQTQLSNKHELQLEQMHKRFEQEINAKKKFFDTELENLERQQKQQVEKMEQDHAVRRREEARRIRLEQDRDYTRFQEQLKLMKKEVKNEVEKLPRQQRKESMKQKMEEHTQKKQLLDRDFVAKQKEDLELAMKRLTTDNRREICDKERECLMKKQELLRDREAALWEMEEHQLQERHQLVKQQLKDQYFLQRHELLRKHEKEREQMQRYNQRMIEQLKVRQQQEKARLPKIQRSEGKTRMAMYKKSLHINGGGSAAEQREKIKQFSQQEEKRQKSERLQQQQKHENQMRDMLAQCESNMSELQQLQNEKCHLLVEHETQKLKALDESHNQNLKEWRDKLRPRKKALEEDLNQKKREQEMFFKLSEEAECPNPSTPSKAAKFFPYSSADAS
From the text for MAP3K4_Cascade: as §1, §5

SMILES: CC[C@@]1(c2ccccc2)C2=C(CC(C)(C)CC2=O)Nc2n[nH]cc21 [BRD0705]
- % Inhibition at 10 μM (GSK3β): 96.5%
- IC50 (GSK3β; read-out: IC50 GSK3β): 488 nM
- % Inhibition at 10 μM (FLT3): 25.0%
- % Inhibition at 10 μM (CDC2/CycB1): 17.2%
- % Inhibition at 10 μM (EPHB4): 14.7%
- % Inhibition at 10 μM (MAP3K4_Cascade): 11.6%
- % Inhibition at 10 μM (LOK): 9.6%
- % Inhibition at 10 μM (YES): 7.9%
- % Inhibition at 10 μM (BRAF_Cascade): 7.8%
- % Inhibition at 10 μM (EPHA6): 7.4%
- % Inhibition at 10 μM (LCK): 5.0%
- % Inhibition at 10 μM (MLK3_Cascade): 4.6%
- % Inhibition at 10 μM (EPHA4): 4.0%
- % Inhibition at 10 μM (KIT(D816V)): 3.5%
- % Inhibition at 10 μM (TSSK3): 3.5%
- % Inhibition at 10 μM (IRAK1): 3.1%
- % Inhibition at 10 μM (TRKA): 2.9%
- % Inhibition at 10 μM (MLK2_Cascade): 2.1%
- % Inhibition at 10 μM (MAP3K5_Cascade): 1.9%
- % Inhibition at 10 μM (PIM2): 0.5%
- % Inhibition at 10 μM (ALK(L1196M)): 0.4%
- % Inhibition at 10 μM (EGFR): 0.3%
- % Inhibition at 10 μM (FGFR4(V550L)): −0.4%
- % Inhibition at 10 μM (PDGFRα): −0.8%
- % Inhibition at 10 μM (SGK3): −1.8%
- % Inhibition at 10 μM (DYRK2): −3.0%
- % Inhibition at 10 μM (DYRK1A): −3.1%
- % Inhibition at 10 μM (p38γ): −3.4%
- % Inhibition at 10 μM (CHK2): −3.6%
- % Inhibition at 10 μM (FAK): −3.9%
- % Inhibition at 10 μM (IKKβ): −4.0%
- % Inhibition at 10 μM (WNK1): −4.2%
- % Inhibition at 10 μM (SIK): −4.8%
- % Inhibition at 10 μM (NEK6): −5.7%
- % Inhibition at 10 μM (PHKG2): −5.8%
- % Inhibition at 10 μM (PKCβ1): −6.5%
- % Inhibition at 10 μM (PKD1): −6.8%
- % Inhibition at 10 μM (CK2α2/β): −7.0%
- % Inhibition at 10 μM (p70S6K): −7.8%
- % Inhibition at 10 μM (AKT3): −8.3%
- % Inhibition at 10 μM (PLK3): −12.5%
- % Inhibition at 10 μM (CRIK): −15.2%

SMILES: CC(C)(C)Cc1[nH]nc2c1[C@](C)(c1ccccc1)C1=C(CC(C)(C)CC1=O)N2 [BRD3731]
- % Inhibition 10 μM (GSK3β): 100.7%
- IC50 (GSK3β): 27 nM
- % Inhibition 10 μM (FLT3; 10 μM): 13.8%
- % Inhibition 10 μM (CDC2/CycB1; 10 μM): 27.8%
- % Inhibition 10 μM (EPHB4; 10 μM): 1.9%
- % Inhibition 10 μM (MAP3K4_Cascade; 10 μM): 12.4%
- % Inhibition 10 μM (LOK; 10 μM): −1.0%
- % Inhibition 10 μM (YES; 10 μM): 1.6%
- % Inhibition 10 μM (BRAF_Cascade; 10 μM): 8.9%
- % Inhibition 10 μM (EPHA6; 10 μM): 9.6%
- % Inhibition 10 μM (LCK; 10 μM): 9.2%
- % Inhibition 10 μM (MLK3_Cascade; 10 μM): −0.8%
- % Inhibition 10 μM (EPHA4; 10 μM): −2.7%
- % Inhibition 10 μM (KIT(D816V); 10 μM): −1.7%
- % Inhibition 10 μM (TSSK3; 10 μM): 33.6%
- % Inhibition 10 μM (IRAK1; 10 μM): 1.2%
- % Inhibition 10 μM (TRKA; 10 μM): 12.0%
- % Inhibition 10 μM (MLK2_Cascade; 10 μM): 0.3%
- % Inhibition 10 μM (MAP3K5_Cascade; 10 μM): 0.4%
- % Inhibition 10 μM (PIM2; 10 μM): 0.8%
- % Inhibition 10 μM (ALK(L1196M); 10 μM): 3.6%
- % Inhibition 10 μM (EGFR; 10 μM): 10.0%
- % Inhibition 10 μM (FGFR4(V550L); 10 μM): 2.9%
- % Inhibition 10 μM (PDGFRα; 10 μM): 6.7%
- % Inhibition 10 μM (SGK3; 10 μM): −5.2%
- % Inhibition 10 μM (DYRK2; 10 μM): 4.1%
- % Inhibition 10 μM (DYRK1A; 10 μM): 3.3%
- % Inhibition 10 μM (p38γ; 10 μM): −2.6%
- % Inhibition 10 μM (CHK2; 10 μM): 1.5%
- % Inhibition 10 μM (FAK; 10 μM): 2.3%
- % Inhibition 10 μM (IKKβ; 10 μM): 0.2%
- % Inhibition 10 μM (WNK1; 10 μM): −1.0%
- % Inhibition 10 μM (SIK; 10 μM): 8.2%
- % Inhibition 10 μM (NEK6; 10 μM): 0.0%
- % Inhibition 10 μM (PHKG2; 10 μM): 6.0%
- % Inhibition 10 μM (PKCβ1; 10 μM): 4.1%
- % Inhibition 10 μM (PKD1; 10 μM): 8.9%
- % Inhibition 10 μM (CK2α2/β; 10 μM): −2.3%
- % Inhibition 10 μM (p70S6K; 10 μM): 12.5%
- % Inhibition 10 μM (AKT3; 10 μM): −6.4%
- % Inhibition 10 μM (PLK3; 10 μM): 4.0%
- % Inhibition 10 μM (CRIK; 10 μM): −0.7%
